# Results from the supplement of paper PMC10307832.
# Assays:
# Assay in all cases: relative viability (nuclei count vs DMSO), 5 days (fraction); higher = more cells survive
# LU99A = test system: LU99A
# Summary of the method: (§1)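 One day after seeding in 1536-well plates, lung cancer cell lines were dosed by pin tool. Dosing was either single-drug or a fixed anchor-drug dose plus five library-drug doses (not always all listed) in √10 steps. After 5 days, nuclei were stained in one fix-and-stain step and counted on 4× images, and relative viability is the nuclei count of treated wells over that of vehicle wells, given as the median of duplicate plates.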
# ABC-1 = test system: ABC-1
# Summary of the method: as §1
# LOU-NH91 = test system: LOU-NH91
# Summary of the method: as §1
# NCI-H460 = test system: NCI-H460
# Summary of the method: as §1
# NCI-H2170 = test system: NCI-H2170
# Summary of the method: as §1
# HCC-78 = test system: HCC-78
# Summary of the method: as §1
# PC-3 [JPC-3] = test system: PC-3 [JPC-3]
# Summary of the method: as §1
# NCI-H1755 = test system: NCI-H1755
# Summary of the method: as §1
# UMC-11 = test system: UMC-11
# Summary of the method: as §1
# NCI-H3122 = test system: NCI-H3122
# Summary of the method: as §1
# NCI-H1944 = test system: NCI-H1944
# Summary of the method: as §1
# NCI-H1395 = test system: NCI-H1395
# Summary of the method: as §1
# CAL-12T = test system: CAL-12T
# Summary of the method: as §1
# NCI-H2228 = test system: NCI-H2228
# Summary of the method: as §1
# NCI-H1793 = test system: NCI-H1793
# Summary of the method: as §1
# NCI-H1651 = test system: NCI-H1651
# Summary of the method: as §1
# ChaGo-K-1 = test system: ChaGo-K-1
# Summary of the method: as §1
# HCC-366 = test system: HCC-366
# Summary of the method: as §1
# LC-2-ad = test system: LC-2-ad
# Summary of the method: as §1
# RERF-LC-KJ = test system: RERF-LC-KJ
# Summary of the method: as §1
# NCI-H2087 = test system: NCI-H2087
# Summary of the method: as §1
# NCI-H2405 = test system: NCI-H2405
# Summary of the method: as §1
smiles,measurement,setting,value
COc1cc2nccc(Oc3ccc(NC(=O)Nc4cc(C)on4)c(Cl)c3)c2cc1OC [Tivozanib] + O=C(c1cc(Cc2n[nH]c(=O)c3ccccc23)ccc1F)N1CCN(C(=O)C2CC2)CC1 [Olaparib] (partner 8 µM),relative viability,LU99A; first compound 0.005 µM,0.275
same,relative viability,LU99A; first compound 0.01581 µM,0.247
same,relative viability,LU99A; first compound 0.05 µM,0.271
same,relative viability,LU99A; first compound 0.1581 µM,0.231
same,relative viability,LU99A; first compound 0.5 µM,0.27
same,relative viability,ABC-1; first compound 0.005 µM,0.815
same,relative viability,ABC-1; first compound 0.01581 µM,0.837
same,relative viability,ABC-1; first compound 0.05 µM,0.579
same,relative viability,ABC-1; first compound 0.1581 µM,1.02
same,relative viability,ABC-1; first compound 0.5 µM,0.67
same,relative viability,LOU-NH91; first compound 0.005 µM,0.894
same,relative viability,LOU-NH91; first compound 0.01581 µM,0.902
same,relative viability,LOU-NH91; first compound 0.05 µM,0.932
same,relative viability,LOU-NH91; first compound 0.1581 µM,0.891
same,relative viability,LOU-NH91; first compound 0.5 µM,0.871
same,relative viability,NCI-H460; first compound 0.005 µM,0.377
same,relative viability,NCI-H460; first compound 0.01581 µM,0.469
same,relative viability,NCI-H460; first compound 0.05 µM,0.496
same,relative viability,NCI-H460; first compound 0.1581 µM,0.393
same,relative viability,NCI-H460; first compound 0.5 µM,0.356
same,relative viability,NCI-H2170; first compound 0.005 µM,0.484
same,relative viability,NCI-H2170; first compound 0.01581 µM,0.596
same,relative viability,NCI-H2170; first compound 0.05 µM,0.642
same,relative viability,NCI-H2170; first compound 0.5 µM,0.523
same,relative viability,HCC-78; first compound 0.005 µM,0.796
same,relative viability,HCC-78; first compound 0.01581 µM,0.746
same,relative viability,HCC-78; first compound 0.05 µM,0.732
same,relative viability,HCC-78; first compound 0.1581 µM,0.872
same,relative viability,HCC-78; first compound 0.5 µM,0.581
same,relative viability,PC-3 [JPC-3]; first compound 0.01581 µM,1.22
same,relative viability,PC-3 [JPC-3]; first compound 0.05 µM,1.11
same,relative viability,PC-3 [JPC-3]; first compound 0.1581 µM,1.15
same,relative viability,PC-3 [JPC-3]; first compound 0.5 µM,1.09
same,relative viability,NCI-H1755; first compound 0.005 µM,0.835
same,relative viability,NCI-H1755; first compound 0.01581 µM,0.829
same,relative viability,NCI-H1755; first compound 0.05 µM,0.936
same,relative viability,NCI-H1755; first compound 0.1581 µM,0.773
same,relative viability,NCI-H1755; first compound 0.5 µM,0.784
same,relative viability,UMC-11; first compound 0.005 µM,0.373
same,relative viability,UMC-11; first compound 0.01581 µM,0.393
same,relative viability,UMC-11; first compound 0.05 µM,0.456
same,relative viability,UMC-11; first compound 0.1581 µM,0.33
same,relative viability,UMC-11; first compound 0.5 µM,0.415
same,relative viability,NCI-H3122; first compound 0.005 µM,0.616
same,relative viability,NCI-H3122; first compound 0.01581 µM,0.641
same,relative viability,NCI-H3122; first compound 0.05 µM,0.768
same,relative viability,NCI-H3122; first compound 0.1581 µM,0.684
same,relative viability,NCI-H3122; first compound 0.5 µM,0.606
same,relative viability,NCI-H1944; first compound 0.005 µM,0.331
same,relative viability,NCI-H1944; first compound 0.01581 µM,0.395
same,relative viability,NCI-H1944; first compound 0.05 µM,0.416
same,relative viability,NCI-H1944; first compound 0.1581 µM,0.406
same,relative viability,NCI-H1944; first compound 0.5 µM,0.376
same,relative viability,NCI-H1395; first compound 0.005 µM,0.421
same,relative viability,NCI-H1395; first compound 0.01581 µM,0.443
same,relative viability,NCI-H1395; first compound 0.05 µM,0.476
same,relative viability,NCI-H1395; first compound 0.1581 µM,0.484
same,relative viability,NCI-H1395; first compound 0.5 µM,0.422
same,relative viability,CAL-12T; first compound 0.005 µM,0.666
same,relative viability,CAL-12T; first compound 0.01581 µM,0.654
same,relative viability,CAL-12T; first compound 0.05 µM,0.75
same,relative viability,CAL-12T; first compound 0.1581 µM,0.812
same,relative viability,CAL-12T; first compound 0.5 µM,0.584
same,relative viability,NCI-H2228; first compound 0.005 µM,0.669
same,relative viability,NCI-H2228; first compound 0.01581 µM,0.956
same,relative viability,NCI-H2228; first compound 0.05 µM,0.771
same,relative viability,NCI-H2228; first compound 0.1581 µM,0.644
same,relative viability,NCI-H2228; first compound 0.5 µM,0.723
same,relative viability,NCI-H1793; first compound 0.005 µM,0.804
same,relative viability,NCI-H1793; first compound 0.01581 µM,0.971
same,relative viability,NCI-H1793; first compound 0.05 µM,1.03
same,relative viability,NCI-H1793; first compound 0.5 µM,0.879
same,relative viability,NCI-H1651; first compound 0.005 µM,0.187
same,relative viability,NCI-H1651; first compound 0.01581 µM,0.188
same,relative viability,NCI-H1651; first compound 0.05 µM,0.198
same,relative viability,NCI-H1651; first compound 0.1581 µM,0.203
same,relative viability,NCI-H1651; first compound 0.5 µM,0.158
same,relative viability,ChaGo-K-1; first compound 0.005 µM,0.386
same,relative viability,ChaGo-K-1; first compound 0.01581 µM,0.381
same,relative viability,ChaGo-K-1; first compound 0.05 µM,0.409
same,relative viability,ChaGo-K-1; first compound 0.1581 µM,0.412
same,relative viability,ChaGo-K-1; first compound 0.5 µM,0.37
same,relative viability,HCC-366; first compound 0.005 µM,0.367
same,relative viability,HCC-366; first compound 0.01581 µM,0.365
same,relative viability,HCC-366; first compound 0.05 µM,0.37
same,relative viability,HCC-366; first compound 0.1581 µM,0.363
same,relative viability,HCC-366; first compound 0.5 µM,0.352
same,relative viability,LC-2-ad; first compound 0.005 µM,0.768
same,relative viability,LC-2-ad; first compound 0.01581 µM,0.793
same,relative viability,LC-2-ad; first compound 0.05 µM,0.787
same,relative viability,LC-2-ad; first compound 0.1581 µM,0.794
same,relative viability,LC-2-ad; first compound 0.5 µM,0.729
same,relative viability,RERF-LC-KJ; first compound 0.005 µM,0.97
same,relative viability,RERF-LC-KJ; first compound 0.01581 µM,0.954
same,relative viability,RERF-LC-KJ; first compound 0.05 µM,0.974
same,relative viability,RERF-LC-KJ; first compound 0.1581 µM,0.929
same,relative viability,RERF-LC-KJ; first compound 0.5 µM,0.875
same,relative viability,NCI-H2087; first compound 0.005 µM,0.542
same,relative viability,NCI-H2087; first compound 0.01581 µM,0.51
same,relative viability,NCI-H2087; first compound 0.05 µM,0.652
same,relative viability,NCI-H2087; first compound 0.1581 µM,0.683
same,relative viability,NCI-H2087; first compound 0.5 µM,0.713
same,relative viability,NCI-H2405; first compound 0.005 µM,0.831
same,relative viability,NCI-H2405; first compound 0.01581 µM,0.95
same,relative viability,NCI-H2405; first compound 0.05 µM,0.916
same,relative viability,NCI-H2405; first compound 0.1581 µM,1.01
same,relative viability,NCI-H2405; first compound 0.5 µM,0.669
